Literature values in US12257290B2, “PIC1 inhibition of myeloperoxidase oxidative activity in an animal model” (priority 2018, dated 2025).

Conditions: intranasal administration; animal models; cited from earlier work

Q: With DNase as the substance, how does the “symptoms of TRALI” value read?
A: Its value is “reduced symptoms of TRALI”.
